Converted amounts (≈) assume the structure as drawn. Where two headings read alike, the source gives them in different places.
What was measured:
[1] = system: Aspergillus flavus (ATCC 204304); experiment: Measurement of minimum inhibitory concentration (MIC), ATCC 204304; format: cell-based; details: ATCC204304; Aspergillus flavus ATCC 204304, 35° C., 48 hours
Procedure: (§1) New streaks are made with glycerol stock solution of the strains of Aspergillus fumigatus (ATCC MYA-4609/AF 293/CBS 101355) on Sabouraud's dextrose agar (SDA), incubate at 35° C. and a humidity of 40-70% for 72 hours. Other strains are processed as the same as AF293.
(§2) RPMI1640: one packet of RPMI1640 powder is dissolved in 1 L purified water and mixed well, add 0.165M MOPS, adjust the pH to 7.0, sterilize by filtration with 0.22 um membrane, and store at 4° C. for no more than 3 months.
(§3) Physiological saline: weigh 9 g of sodium chloride powder and dissolve in 1 L of purified water, and mixed well. Sterilize at 121° C. for 30 min, store at room temperature (RT) for no more than 1 week.
(§4) Dissolve the test compound and stock solution of one control compound with DMSO and obtain solutions at a concentration of 12.8 mg/mL
(§5) The maximum concentration of each compound is 0.8 mg/mL (e.g., 150 μL of dimethyl sulfoxide+10 uL of 12.8 mg/mL compound/control). Column 1 is filled with 40 μL of compound and columns 2 to 11 with 20 μL of dimethyl sulfoxide. Transfer 20 μL of compound from column 1 to column 2 to dilute the concentration. Repeat the above steps up to column 11 to give 2× serial dilutions.
(§6) 2 μL of the above 2× serial dilutions are injected into each hole of the corresponding test plate using a multichannel pipette.
(§7) Drop 5 ml of saline on the Aspergillus fumigatus SDA plate. The spores were carefully wiped off from the surface of the plate with an L-shaped coating rod. Then the suspension is transferred into a sterile tube. After shaking, let the tube stand for 5 to 10 minutes. Count the number of spores in the upper suspension with a hemocytometer and check the purity. Adjust the inoculum concentration to 0.2-2.5×10^4 spores/mL.
(§8) Inject 198 μL of diluted inoculum into each holes of the corresponding test plate using a multichannel pipette.
(§9) Incubate at 35° C. for 48 hours.
(§10) To facilitate scoring of the presence or absence of growth on the wall, a magnifying glass is used. The tested 96-well microplates were photographed and the optical density at 530 nm is read with an enzyme marker (Tecan Spark).

[2] = system: Aspergillus fumigatus (ATCC MYA-4609/AF293/CBS 101355); experiment: Measurement of minimum inhibitory concentration (MIC), AF293; format: cell-based; details: CBS101355; Aspergillus fumigatus AF293, 35° C., 48 hours, RPMI1640; read-out: AF293: MIC
Procedure: as §1, §2, §3, §4, §5, §6, §7, §8, §9, §10

[3] = system: Aspergillus fumigatus (ATCC-204305); experiment: Measurement of minimum inhibitory concentration (MIC), ATCC 204305; format: cell-based; details: Aspergillus fumigatus ATCC 204305, 35° C., 48 hours; for MIC: ATCC204305
Procedure: New streaks are made with glycerol stock solution of the strains of Aspergillus [NT] MYA-4609/AF 293/CBS 101355) on Sabouraud's dextrose agar (SDA), incubate at 35° C. and a humidity of 40-70% for 72 hours. Other strains are processed as the same as AF293. RPMI1640: one packet of RPMI1640 powder is dissolved in 1 L purified water and mixed well, add 0.165M MOPS, adjust the pH to 7.0, sterilize by filtration with 0.22 um membrane, and store at 4° C. for no more than 3 months. Physiological saline: weigh 9 g of sodium chloride powder and dissolve in 1 L of purified water, and mixed well. […] Dissolve the test compound and stock solution of one control compound with DMSO and obtain solutions at a concentration of 12.8 mg/mL The maximum concentration of each compound is 0.8 mg/mL (e.g., 150 μL of dimethyl sulfoxide+10 uL of 12.8 mg/mL compound/control). […] Repeat the above steps up to column 11 to give 2× serial dilutions. 2 μL of the above 2× serial dilutions are injected into each hole of the corresponding test plate using a multichannel pipette. Drop 5 ml of saline on the Aspergillus fumigatus SDA plate. The spores were carefully wiped off from the surface of the plate with an L-shaped coating rod. Then the suspension is transferred into a sterile tube. After shaking, let the tube stand for 5 to 10 minutes. Count the number of spores in the upper suspension with a hemocytometer and check the purity. Adjust the inoculum concentration to 0.2-2.5×10^4 spores/mL. Inject 198 μL of diluted inoculum into each holes of the corresponding test plate using a multichannel pipette. Incubate at 35° C. for 48 hours. […] To facilitate scoring of the presence or absence of growth on the wall, a magnifying glass is used. The tested 96-well microplates were photographed and the optical density at 530 nm is read with an enzyme marker (Tecan Spark).

[4] = Pharmacokinetic test in SD rats, single oral administration; format: in vivo; details: single oral administration 10 mg/kg, test compound mixed with F901318, plasma
Procedure: Pharmacokinetic study is performed on SD rats receiving single oral administration of each test compound mixed with F901318 (10 mg/kg, 3 rats per group). Test compounds and F901318 are dissolved with […]+10% solutol+85% saline, vortexed for 1-2 mins and ultra-sonicated for 5-10 mins to form a colorless clear drug solution. The animals are fasted overnight before oral administration, and resumed feeding 4 hours after administration. After oral administration, pharmacokinetic samples are collected from orbital blood of SD rats at 0.083 h, 0.25 h, 0.5 h, 1 h, 2 h, 4 h, 6 h, 8 h, and 24 h, and three whole blood samples are collected at each time point in a volume of 0.2-0.3 mL. Blood samples are placed on ice immediately after collected, and the plasma is separated by centrifugation within 15 min (centrifugation conditions: 8000 rpm, 1 min, and at room temperature).
The collected plasma is stored at −20° C. prior to analysis. Transfer 20 μL of plasma sample into an 0.5 mL EP tube, add 200 μL of working internal standard solution (blank group is without internal standard, using the same volume of solvent instead), vortex and mix for 3 min centrifuge at 13500 rpm for 10 min, take 100 μL of supernatant and analyze with LC-MS/MS.

[5] = system: Aspergillus flavus (ATCC MYA-1004); experiment: Measurement of minimum inhibitory concentration (MIC), ATCC MYA-1004; format: cell-based; details: Aspergillus flavus ATCC MYA-1004, 35° C., 48 hours
Procedure: as §1, §2, §3, §4, §5, §6, §7, §8, §9, §10

[6] = Liver microsomal stability test, human; format: in vitro ADME; details: Human liver microsomes
Procedure: (§11) • 1: Add 10 μL of working solutions of test product or reference product and 80 μL of microsomal working solution (liver microsomal protein concentration of 0.5 mg/mL) to wells of TO, T5, T10, T20, T30, T60, and NCF60, and only microsomal working solution is added to the Blank60 wells. Then the samples of Blank60, T10, T20, T30 and T60, except for TO and NCF60, are placed in a water bath set at 37° C. and incubate for approximately 10 mins; • 2: Add 300 μL of termination solution (acetonitrile solution containing 200 ng/mL tolbutamide and 200 ng/mL labetalol) to Sample TO, followed by 10 ul of NADPH regeneration system working solution; • 3: After incubation of Blank60, T5, T10, T20, T30 and T60 on incubation plates, add 10 μL of NADPH regeneration system working solution to each sample well to start the reaction, and 10 uL of 100 mM potassium phosphate buffer is add to the NCF60 sample wells; • 4: After incubation for appropriate times (e.g., 5, 10, 20, 30 and 60 mins), 300 μL of termination solution is add to each sample well of test product and reference product on Blank60, T5, T10, T20, T30, T60 and NCF60 plates, respectively, to terminate the reaction. • 5: All sample plates are shaken well and centrifuged at 4000 rpm for 20 min, take 100 μL of the supernatant of the test product or reference product, dilute in 300 μL of pure water for LC-MS/MS analysis, respectively. • 6: Data analysis, T½ and CLint(mic) (μL/min/mg) values are calculated based on the first-order elimination kinetics, and the equations of first-order elimination kinetics are: […]

[7] = Liver microsomal stability test, mouse; format: in vitro ADME; details: Mouse liver microsomes
Procedure: as §11

[8] = system: Aspergillus fumigatus ATCCMYA-4690 (AF293); experiment: Survival rate experiment II of mouse bloodstream infection model with Aspergillus fumigatus; format: in vivo; details: immunosuppressed male CD-1 mouse
Procedure: Test Case 6: Survival Rate Experiment II of Mouse Bloodstream Infection Model with Aspergillus fumigatus • Animal for experiment: male CD-1 mouse, 6-8 weeks old, 10 animals per group. • Induction of immunosuppression: the day of infection is defined as day 0, and mouses are injected intraperitoneally with corresponding doses of cyclophosphamide on day −4 (150 mg/kg), day −1 (100 mg/kg), and day 2 (100 mg/kg), respectively. • Microbial pathogen: Aspergillus fumigatus ATCCMYA-4690 (AF293). • Collection conditions of inoculum: culture on SDA culture plates, incubate at 25° C. for at least 7 days, collect with PBS+0.1% Tween 20, and count microscopically; • Inoculation level, route and volume: 3.90E+05 CFU/mouse, tail vein injection, injection volume of 100 μL/mouse; • Treatment: Treatment is started 24 hours after infection, and test compounds are dissolved in PEG400 (0.3 mg/mL), […] The administrated mouses are observed for 8 hours.

[9] = 0.5 mg/mL protein, 37° C., NADPH

| SMILES | MIC [1] [µg/mL] | MIC [2] [µg/mL] | MIC [3] [µg/mL] | MIC [5] [µg/mL] | CLint scaled [6, 9] [mL/min/kg] | half-life [6, 9] [min] | Remaining, (T = 60 min) [6] [%] | CLint scaled [7, 9] [mL/min/kg] | half-life [7, 9] [min] | Remaining, (T = 60 min) [7] [%] | other results |
| --- | --- | --- | --- | --- | --- | --- | --- | --- | --- | --- | --- |
| Cc1cc(-c2ccccc2)c(C(=O)C(=O)Nc2ccc3c(c2)OCC2CN(c4ncc(F)cn4)CCN32)n1C (stereo not drawn) [Example 3, 2-(1,5-dimethyl-3-phenyl-1H-pyrrol-2-yl)-N-(3-(5-fluoropyrimidin-2-yl)-1,2,3,4,4a,5-hexahydrobenzo[b]pyrazino[1,2-d][1,4]oxazin-8-yl)-2-oxoacetamide] | 0.008 (≈ 0.0152 µM) | 0.125 (≈ 0.237 µM) | 0.016 (≈ 0.0304 µM) | 0.008 (≈ 0.0152 µM) |  |  |  |  |  |  | AUC ([4]; SD, rat, plasma, po, 10 mg/kg, read-out: AUC): 18700 ng·h/mL; Cmax ([4]; SD, rat, plasma, po, 10 mg/kg, read-out: Cmax): 1420 ng/mL; Tmax ([4]; SD, rat, plasma, po, 10 mg/kg, read-out: Tmax): 55 min; half-life ([4]; SD, rat, plasma, po, 10 mg/kg, read-out: T½ (converted)): 321 min |
| Cc1cc(-c2ccccc2)c(C(=O)C(=O)Nc2cc(F)c3c(c2)OCC2CN(c4ncc(F)cn4)CCN32)n1C (stereo not drawn) [Example 4] | 0.016 (≈ 0.0294 µM) | 0.03 (≈ 0.0551 µM) | 0.016 (≈ 0.0294 µM) | 0.008 (≈ 0.0147 µM) | 66.4 | 18.8 | 10.5 | 114 | 21.8 | 14.3 |  |
| Cc1cc(-c2ccccc2)c(C(=O)C(=O)Nc2ccc3c(c2)CCC2CN(c4ncc(F)cn4)CCN32)n1C (stereo not drawn) [Example 32, 2-(1,5-dimethyl-3-phenyl-1H-pyrrol-2-yl)-N-(3-(5-fluoropyrimidin-2-yl)-2,3,4,4a,5,6-hexahydro-1H-pyrazino [1,2-a]quinolin-8-yl)-2-oxoacetamide] | 0.016 (≈ 0.0305 µM) | 0.008 (≈ 0.0152 µM) | 0.03 (≈ 0.0572 µM) | 0.016 (≈ 0.0305 µM) | 56.4 | 22.1 | 26.6 | 89.8 | 27.8 | 26.2 |  |
| Cc1cc(-c2ccccc2)c(C(=O)C(=O)Nc2ccc3c(c2)C[C@@H]2CN(c4ncc(F)cn4)CCN32)n1C [Example 34, (R)-2-(1,5-dimethyl-3-phenyl-1H-pyrrol-2-yl)-N-(2-(5-fluoropyrimidin-2-yl)-1,2,3,4,10,10a-hexahydropyrazino [1,2-a]indol-8-yl)-2-oxoacetamide] | 0.016 (≈ 0.0313 µM) | 0.016 (≈ 0.0313 µM) | 0.03 (≈ 0.0588 µM) | 0.008 (≈ 0.0157 µM) | 31.3 | 39.9 | 34.5 | 45.9 | 54.4 | 48.5 |  |
| Cc1cc(-c2ccccc2F)c(C(=O)C(=O)Nc2ccc3c(c2)C[C@H]2CN(c4ncc(F)cn4)CCN32)n1C [Example 38, (S)-2-(3-(2-fluorophenyl)-1,5-dimethyl-1H-pyrrol-2-yl)-N-(2-(5-fluoropyrimidin-2-yl)-1,2,3,4,10,10a-hexahydropyrazino[1,2-a]indol-8-yl)-2-oxyacetamide] |  |  |  |  |  |  | 25.3 |  |  | 24.5 | CLint [6, 9]: 40.7 mL/min/kg; T1/2 [6, 9]: 30.7 min; day 7 survival rate ([8]; 3 mg/kg (bid) orally for 6 days, started 24 hours after infection): 50%; survival time of mouses ([8]; oral, bid): prolong the survival time; ATCC 204305: MIC [3]: 0.008 µg/mL; CLint [7, 9]: 85.1 mL/min/kg; T1/2 [7, 9]: 29.3 min; AUC [4]: 41566.714 ng·h/mL; Cmax [4]: 3053.085 ng/mL; Tmax [4]: 60 min; T½ [4]: 672.12 min |

Reference: patent US20240327423A1, “A SERIES OF PYRROLE DERIVATIVES AND THEIR PREPARATION METHOD AND THERAPEUTIC USE” (SHENZHEN SUNGENING BIO-MEDICAL CO., LTD, priority 2020, published 2024)
